Measured values: US20230001012A1, “COCRYSTALS OF STEROID AND SECOSTEROID COMPOUNDS AND COMPOSITIONS COMPRISING THEM” (priority 2019, published 2023)

Tests used:
Format in all cases: physicochemical
[1] = Dissolution rate of tablets in FaSSIF v2 medium (small-scale dissolution assay, UV quantification, Noyes-Whitney fit); settings: FaSSIF v2 (pH 6.5), 25° C.; for dissolution rate: 120 minutes, 3 mm tablet
Experimental: Molar extinction coefficients of VD2, VD3 and of the coformer were determined by UV-metric titration using a GIpKa™ titrator (Sirius Analytical Instruments, UK). Briefly, a 10 mM stock solution of sample was prepared in DMSO. 50 μL of sample stock solution and 0.25 mL of a 15 mM potassium phosphate buffer were added to 10 mL of a 0.15 M KCl solution, which in turn contained 17.9 mg of FaSSIF v2 powder. The pH of the sample solution was adjusted to 2 with 0.5 M HCl before starting the titration, and then the titration was done using 0.5 M KOH up to pH 12. The UV absorption spectra (between 250 and 450 nm) of the solution were recorded at each titrant addition by a fiber optic dip-probe. The collected data were refined through the RefinamentPro software, and the pKa values and Molar Extinction Coefficients obtained by Target Factor Analysis.
• Tablet production: tablets of 3 mm diameter were done using a manual hydraulic tablet press (Applied Measurements Ltd, UK). The applied pressure was 100 Kg for 2 min. From 6 to 10 mg of each solid form, vitamin or cocrystal, were weighted. The total exposed surface area was […]. • Medium: FaSSIF v2 (pH 6.5), with corresponding amount of phosphoric (28.4 mM) acid instead of maleic acid. • Dissolution tests were performed with a small-scale dissolution assay installed in a GIpKa™ titrator (Sirius Analytical Instruments, UK). • Dissolution time and temperature: 120 minutes and 25° C. • Procedure: 15 mL of FaSSIF v2 was added into the sample vial containing the tablet. Spectra collection started immediately after. Spectra were recorded every 30 seconds between 250 and 450 nm through a Sirius D-PAS spectrometer with a bifurcated optic fibre dip probe (Hellma Analytics). The medium was stirred at a constant rate.
The concentration of cholecalciferol (VD3) or ergocalciferol (VD2) in solution at each time point is determined from the spectroscopic data by applying the Beer-Lambert law, using previously determined molar extinction coefficients of the pure APIs and the coformers. Spectrum regions where signal is saturated (A>1.5) or presenting medium interferences were discarded. Then, the concentration data were converted into absolute sample quantities, and used to generate the graphs showing the sample quantity vs. time.
Dissolution rate is obtained through the fit of the first order Noyes-Whitney exponential equation to the data: […]
In this equation, [X]t is the weight in grams of compound in solution at the experiment time (min); S is the extrapolated solubility (g) of the vitamin; kd is the rate constant for dissolution (min^−1); and t0 (min) is a term allowing for a temporal offset. Results are calculated using a refinement process in which S, kd and t0 are varied in order to minimize the root mean square deviation between the modelled concentrations and the measured concentrations. The dissolution rate (g min^−1) is given by the product kdS (T. Gravestock et al., Anal. Methods, 2011, 3, 560).

[2] = Stability of VD2 vs VD2 cocrystals (beta-sitosterol, orcinol) under two stress conditions, solid form analysed periodically by PXRD; settings: for stability under both stress conditions (in words): 25° C./57% RH and 40° C./75% RH
Experimental: The stability of the VD2 cocrystal with beta-sitosterol and VD2 cocrystal with orcinol was studied and compared to the stability of VD2 (Form A) under two stress conditions. The samples were stored under both stress conditions inside a Series FD Binder chamber and they were analyzed periodically by PXRD. The two stress conditions were the following: • condition A: 25° C. and 57% relative humidity; • condition B: 40° C. and 75% relative humidity.
A saturated solution of sodium bromide salt (for 57% RH) and a saturated solution of sodium chloride (for 75% RH) were used to control relative humidity.

[3] = Stability of VD3 vs VD3:orcinol cocrystal under stress conditions (40° C.-75% RH), solid form analysed periodically by PXRD
Experimental: The samples were stored under these conditions inside a Series FD Binder chamber and they were analyzed periodically by PXRD. A saturated solution of sodium chloride (75%) was used to control relative humidity.

[4] = Stability of VD3:resorcinol cocrystal vs commercial VD3 in a mineral-vitamin premix containing choline chloride (HPLC-MS)
Experimental: The stability of the VD3:resorcinol cocrystal mixed in a premix that was a standard mineral-vitamin mix containing choline was studied under normal and high environmental temperature/humidity and compared to the stability of commercial VD3 for animal nutrition (Orffa D3 500) in the same premix under de same conditions.
• 25° C. and 57% humidity (temperature controlled chambers with a saturated solution of NaBr to maintain humidity at 57%); • 40° C. and 75% humidity (temperature controlled chambers with a saturated solution of NaCl to maintain humidity at 75%).
The mineral mix was supplemented to contain 750,000 UI/kg Vitamin A, 5,000 mg/kg vitamin E and 12.5% choline chloride (choline chloride, vegetal coating, 60%). VD3 final content was 1,600,000 UI/Kg (both for the cocrystal VD3:resorcinol and for the commercial VD3.
Samples (2 g) were weighted in 50 mL plastic tubes and incubated in the experimental conditions (see above). Samples for each individual time were incubated in quadruplicates to account for potential variation. Samples were prepared to be retrieved from incubators at 2, 4, 8 and 12 weeks. After each time, samples were processed and analyzed immediately (no storage).
Samples were subjected to an extraction process done in the incubation tube with the full sample to avoid sub-sampling problems. Extracted supernatant was analysed for vitamin D using and HPLC (Model 1260 Series, Agilent, Darmstadr, Germany) coupled with a MS-QQQ (Model G6420, Agilent) against a calibrated curve using a standard vitamin D3. Results are reported as a percent degradation compared with the original Vitamin concentration.

[5] = 40° C./75% H, premix with choline chloride

C=C1CC[C@H](O)C/C1=C/C=C1\CCC[C@]2(C)[C@@H]([C@H](C)/C=C/[C@H](C)C(C)C)CC[C@@H]12 [VD2, ergocalciferol]
dissolution rate [1]: 0.74 ± 0.23 nmol/min | Solid form (PXRD) under stress conditions ([2]; 25° C.-57% RH, 0 days): Form A | Solid form (PXRD) under stress conditions ([2]; 25° C.-57% RH, 370 days): Amorphous phase | stability under both stress conditions (in words) [2]: very low stability | Solid form (PXRD) under stress conditions ([2]; 40° C.-75% RH, 0 days): Form A | Solid form (PXRD) under stress conditions ([2]; 40° C.-75% RH, 210 days): Liquid phase | time at which conversion into an amorphous phase started ([2]; both stress conditions): ≤ 25 days

C=C1CCC(O)CC1=CC=C1CCCC2(C)C1CCC2C(C)C=CC(C)C(C)C.C=C1CCC(O)CC1=CC=C1CCCC2(C)C1CCC2C(C)C=CC(C)C(C)C.CCC(CCC(C)C1CCC2C3CC=C4CC(O)CCC4(C)C3CCC12C)C(C)C (stereo not drawn) [VD2:beta-sitosterol]
time remained as the same starting solid form ([2]; 25° C. and 57% of relative humidity): ≥ 370 days | stability under both stress conditions (in words) [2]: very high stability | time remained as the same starting solid form ([2]; 40° C. and 75% of relative humidity): ≥ 25 days | Solid form (PXRD) under stress conditions ([2]; 40° C.-75% RH, 210 days): Amorphous | Solid form (PXRD) under stress conditions ([2]; 40° C.-75% RH, 370 days): Amorphous

C=C1CC[C@H](O)C/C1=C/C=C1\CCC[C@]2(C)[C@@H]([C@H](C)CCCC(C)C)CC[C@@H]12 [VD3, cholecalciferol, reference compound]
stability under stress conditions (in words) [3]: very low stability | time to conversion into a liquid phase [3]: five | Solid form (PXRD) under stress conditions ([3]; 0 days): Form A | Solid form (PXRD) under stress conditions ([3]; 5 days): liquid | stability in premix, comparison of the two environmental conditions ([4]; 25° C./57% H vs 40° C./75% H): more stable at 25° C./57% H compared with 40° C./75% H | dissolution rate [1]: 0.58 ± 0.14 nmol/min

C=C1CCC(O)CC1=CC=C1CCCC2(C)C1CCC2C(C)C=CC(C)C(C)C.C=C1CCC(O)CC1=CC=C1CCCC2(C)C1CCC2C(C)CCCC(C)C (centres unmarked) [VD3-VD2]
dissolution rate [1]: 0.63 ± 0.21 nmol/min

C=C1CCC(O)CC1=CC=C1CCCC2(C)C1CCC2C(C)CCCC(C)C.Oc1cccc(O)c1 (centres unmarked) [VD3-resorcinol]
stability in premix compared with VD3 ([4]; 25° C./57% H, premix with choline chloride): more stable than VD3 | change of stability in premix [4, 5]: sharp reduction in stability | stability in premix compared with commercial VD3 [4, 5]: better performance than commercial VD3 | stability in premix compared with VD3 ([4]; both conditions (25° C./57% H and 40° C./75% H)): more stable than VD3 | dissolution speed compared with other solid forms [1]: dissolved faster than VD2, VD3, or VD2-VD3 | dissolution rate [1]: 0.94 ± 0.22 nmol/min

C=C1CCC(O)CC1=CC=C1CCCC2(C)C1CCC2C(C)CCCC(C)C.Cc1cc(O)cc(O)c1 (centres unmarked) [VD3:orcinol]
stability under stress conditions (in words) [3]: very high stability
